pIC50: −log10 of the molar value. Activity calls are given as the source filed them. No cut-off for these calls is given here.
What was measured:
MT4 [1] = assay: antiviral activity against HIV-1 in MT-4 cells using cell-protection assay at a concentration of 200 uM; type: functional, cell-based; conditions: Homo sapiens
MT4 [2] = assay: Average antiviral activity against HIV-1 in MT-4 cells using cell-protection assay; type: functional, cell-based; conditions: Homo sapiens

SMILES	Activity (MT4 [1])	pIC50 (MT4 [2])
Cc1cn(C2CC(N=[N+]=[N-])C(/C=C/P(=O)(O)Oc3ccccc3)O2)c(=O)[nH]c1=O (stereo not given)	inactive	
Cc1cn(C2CC(N=[N+]=[N-])C(CCP(=O)(O)Oc3ccccc3)O2)c(=O)[nH]c1=O (stereo not given)	inactive	
Cc1cn(C2CC(N=[N+]=[N-])C(/C=C/P(=O)(O)O)O2)c(=O)[nH]c1=O (stereo not given)	inactive	
Cc1cn(C2CC(N=[N+]=[N-])C(CCP(=O)(O)O)O2)c(=O)[nH]c1=O (stereo not given)	inactive	
Cc1cn([C@H]2C[C@H](N=[N+]=[N-])[C@@H](CO)O2)c(=O)[nH]c1=O [ZIDOVUDINE]		7.22

— ChEMBL document CHEMBL1125537, “3'-Azido-3',5'-dideoxythymidine-5'-methylphosphonic acid diphosphate: synthesis and HIV-1 reverse transcriptase inhibition” (J Med Chem, 1992)
